Results on 1 compound are retold here after US20110286998A1, “METHODS FOR TREATING AND PREVENTING CANCERS THAT EXPRESS THE HYPOTHALAMIC-PITUITARY-GONADAL AXIS OF HORMONES AND RECEPTORS” (Voyager Pharmaceutical Corporation, priority 2001, published 2011).

SMILES strings stand for the structures.

One data set deals with cancer cell lines. It counts as cell-based. How it is done: Cell growth assays were performed as described below. CaOV3 (ATCC HTB-75) cells were plated in Dulbecco's modified Eagle's medium with 4 mM L-glutamine, 1.5 g/L sodium bicarbonate, 0.1 mM non-essential amino acids, and 10% fetal bovine serum. H358 (ATCC CRL-5807) cells were plated in RPMI 1640 medium with 2 mM L-glutamine adjusted to contain 1.5 g/L sodium bicarbonate, 4.5 g/L glucose, 10 mM HEPES, 1.0 mM sodium pyruvate and 10% fetal bovine serum. H838 (ATCC CRL-5844) cells were plated in RPMI 1640 medium with 1.5 g/L sodium bicarbonate, 4.5 g/L glucose, 10 mM HEPES, 1.0 mM sodium pyruvate, 10 U/ml insulin and 10% fetal bovine serum. […]
For cell growth assays in a 96 well format, different numbers of cells were plated, depending on the cell line (about 2000 cells/well for CaOV3, about 250 cells/well for 786-O, about 500 cells/well for H838 and H358, about 5000 cells/well for T47D and […], about 1000 cells/well for HPAC, ACHN, HT-29, MCF-7 and about 300,000 cells/well for MV4-11). […] The number of cells in each group was measured by incubating cells with WST-8 (2-(2-methoxy-4-nitrophenyl)-3-(4-nitrophenyl)-5-(2,4-disulfophenyl)-2H-tetrazolium, monosodium salt) which produces a water soluble formazan dye that was detected by measuring optical density (at 450 nm) using a μQuant™ Universal Microplate Spectrophotometer (Bio-Tek® Instruments, Inc., Winooski, Vt.).

The conditions of data set [1]: both, dog, in vivo, sc, 34 mg.
Experimental: FIG. 16 presents results of a pharmacokinetic study in which male and female dogs were either injected intramuscularly with a leuprolide depot formulation or implanted subcutaneously with a leuprolide implant formulation.
Six dogs of each sex were dosed with 60 mg of Lupron Depot® by injection (males—X, females—▴) on day 1. Six dogs of each sex were dosed with single subcutaneous doses (males—▪, females—♦) of 3 DURIN™-Leuprolide 11.3 mg implants (total dose 34 mg) on day 1 and again on day 64. Serum leuprolide levels were determined and plotted against time out to 200 days.
Data set [2] deals with pituitary secretion of LH and FSH. The conditions noted are these: cited from earlier work.
The next data set has as its system testosterone. The conditions noted are these: in vivo; cited from earlier work.

Turning to `CCNC(=O)[C@@H]1CCCN1C(=O)[C@H](CCCNC(=N)N)NC(=O)[C@H](CC(C)C)NC(=O)[C@@H](CC(C)C)NC(=O)[C@H](Cc1ccc(O)cc1)NC(=O)[C@H](CO)NC(=O)[C@H](Cc1c[nH]c2ccccc12)NC(=O)[C@H](Cc1c[nH]cn1)NC(=O)[C@@H]1CCC(=O)N1` [leuprolide acetate], in the data set on cancer cell lines, the “effect on growth of cancer cell lines” value is reported as “slows or inhibits growth in a dose dependent manner”. For the same compound, the “inhibition rates of cancer cell growth” value in the data set on cancer cell lines (highest dose of leuprolide used in the studies) is recorded as 10-40%. For the same compound, the “sustained serum levels of leuprolide acetate” value in data set [1] was in the range of 5.0 to 8.0 ng/mL. In addition, the “pituitary secretion of LH and FSH” value in data set [2] (for several days after initial administration) is “increase”. In data set [2] (thereafter, pituitary GnRH receptors down-regulated), the “LH and FSH secretion” value is recorded as “significant decrease”. The “serum concentrations required for testosterone suppression” value with testosterone was “less than 1 ng/ml”.
